{"source": "patent US20230082555A1", "about": "“Composition for Medium” (Kataoka Corporation, priority 2019, published 2023)", "system": "human fibroblasts", "experiment": "Presence or absence of fatty acids in serum-free induction medium, Ucp1 and Ckmt1 by QRT-PCR (Test Example E)", "format": "cell-based", "conditions": "brown adipocytes induced from fibroblasts; FIGS. 8 and 9", "experimental": "After the human fibroblasts reached 80% to 90% confluency, the medium in the dish was replaced with SFBAM which is serum-free or SFBAM in which albumin and fatty acid components were changed to the combinations shown in Table 10 of the compounds shown in Table 9, both of which contain all the compounds shown in Table 3, and the human fibroblasts were cultured in said respective media for three weeks (Examples 11 to 14). The medium was changed every three days. Thereafter, the expression amounts of marker genes, Ucp1 and Ckmt1, specific for brown adipose tissue were quantified by QRT-PCR. Symbol 1 (control) in the figures represents the result in SFBAM without the compounds shown in Table 3 necessary for induction into brown adipocytes."}
{"substance": "fatty acid-unbound albumin: Fatty acid-free albumin, in which a fatty acid is removed from an albumin (017-15146, FUJIFILM Wako)", "values": [{"measurement": "Expression levels of Ucp1 genes versus induction with fatty acid-bound albumin", "value": "much higher"}]}
